Patent US12427157B2, “Methods for treatment of diseases involving acidic or hypoxic diseased tissues” (Cybrexa 1, Inc., priority 2018, dated 2025)
Residues, ends and D or L forms follow the SMILES beside them. *: point of attachment. X17 = C[C@@H](COC(=O)N1CCC[C@@H](c2ccc(-n3cc4cccc(C(N)=O)c4n3)cc2)C1)S*; X21 = NC(=O)c1cccc2cn(-c3ccc([C@@H]4CCCN(C(=O)OCCS*)C4)cc3)nc12; X14 = C[C@@H](COC(=O)N1CCC[C@]1(C)c1nc2c(C(N)=O)cccc2[nH]1)S*; X16 = C[C@H](COC(=O)N1CCC[C@]1(C)c1nc2c(C(N)=O)cccc2[nH]1)S*; X22 = C[C@]1(c2nc3c(C(N)=O)cccc3[nH]2)CCCN1C(=O)OCCS*
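Also: PARP reaction with activated DNA run 1 h at room temperature, product detected via streptavidin-HRP and luminescence endpoint reading on a plate reader.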

Each compound was assayed against PARP (Homo sapiens, UniProt P09874) (assay: Enzymatic Assay 2: HT Universal Chemiluminescent PARP Assay of cleaved compounds). Details: not given.
Chain of PARP (P09874 whole entry): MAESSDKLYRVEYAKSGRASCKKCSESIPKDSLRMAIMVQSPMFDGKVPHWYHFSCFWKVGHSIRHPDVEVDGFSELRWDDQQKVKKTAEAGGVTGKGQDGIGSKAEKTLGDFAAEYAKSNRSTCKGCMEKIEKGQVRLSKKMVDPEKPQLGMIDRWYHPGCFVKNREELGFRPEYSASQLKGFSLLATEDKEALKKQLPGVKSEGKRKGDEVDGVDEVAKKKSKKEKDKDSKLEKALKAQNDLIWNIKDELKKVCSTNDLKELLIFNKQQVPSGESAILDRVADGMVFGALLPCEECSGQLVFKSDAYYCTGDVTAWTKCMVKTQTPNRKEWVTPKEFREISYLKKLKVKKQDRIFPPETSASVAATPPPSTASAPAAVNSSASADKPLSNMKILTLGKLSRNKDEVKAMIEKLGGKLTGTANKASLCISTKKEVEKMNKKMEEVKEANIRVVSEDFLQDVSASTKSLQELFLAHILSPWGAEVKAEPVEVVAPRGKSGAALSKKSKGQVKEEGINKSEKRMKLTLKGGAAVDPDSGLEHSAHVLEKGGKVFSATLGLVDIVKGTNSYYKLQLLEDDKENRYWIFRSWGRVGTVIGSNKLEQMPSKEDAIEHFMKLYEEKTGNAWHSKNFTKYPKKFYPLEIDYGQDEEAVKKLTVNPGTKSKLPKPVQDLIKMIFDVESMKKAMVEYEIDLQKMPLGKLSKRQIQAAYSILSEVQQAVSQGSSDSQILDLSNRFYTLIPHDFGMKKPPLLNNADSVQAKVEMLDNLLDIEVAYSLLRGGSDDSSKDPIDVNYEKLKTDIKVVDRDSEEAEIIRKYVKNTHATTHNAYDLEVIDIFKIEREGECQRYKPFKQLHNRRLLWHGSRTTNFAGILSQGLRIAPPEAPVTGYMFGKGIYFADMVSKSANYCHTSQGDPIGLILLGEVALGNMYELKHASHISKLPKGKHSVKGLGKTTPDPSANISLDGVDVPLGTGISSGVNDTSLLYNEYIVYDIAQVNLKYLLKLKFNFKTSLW
C[C@]12CCCN1C1=NNC(=O)c3cc(F)cc4[nH]c(c1c34)C2 [R^8H-17, reference compound] was tested, and the IC50 was 1 nM.

Same assay, conditions: read-out: IC50 Enzymatic Assay 2; Examples cleaved per Example A (crude cleavage solution); R^8H starting materials as such
Work on CC[C@H](C)[C@H](NC(=O)[C@@H]1CCCN1C(=O)[C@H](CC(N)=O)NC(=O)[C@H](CCC(N)=O)NC(=O)[C@H](CCC(=O)O)NC(=O)[C@H](C)N)C(=O)N[C@@H](Cc1ccc(O)cc1)C(=O)N[C@@H](Cc1c[nH]c2ccccc12)C(=O)N[C@@H](C)C(=O)N[C@@H](CCCNC(=N)N)C(=O)N[C@@H](Cc1ccc(O)cc1)C(=O)N[C@@H](C)C(=O)N[C@@H](CC(=O)O)C(=O)N[C@@H](Cc1c[nH]c2ccccc12)C(=O)N[C@@H](CC(C)C)C(=O)N[C@@H](Cc1ccccc1)C(=O)N[C@H](C(=O)N[C@H](C(=O)N1CCC[C@H]1C(=O)N[C@@H](CC(C)C)C(=O)N[C@@H](CC(C)C)C(=O)N[C@@H](CC(C)C)C(=O)N[C@@H](CC(C)C)C(=O)N[C@@H](CC(=O)O)C(=O)N[C@@H](CC(C)C)C(=O)N[C@@H](C)C(=O)N[C@@H](CC(C)C)C(=O)N[C@@H](CC(C)C)C(=O)N[C@H](C(=O)N[C@@H](CC(=O)O)C(=O)N[C@@H](C)C(=O)N[C@@H](CC(=O)O)C(=O)N[C@@H](CCC(=O)O)C(=O)N[C@@H](CSS[C@@H](C)COC(=O)N1CCC[C@@H](c2ccc(-n3cc4cccc(C(N)=O)c4n3)cc2)C1)C(=O)NCC(=O)O)C(C)C)[C@@H](C)O)[C@@H](C)O [Example 48] (H-AEQNPIYWARYADWLFTTPLLLLDLALLVDADEC(X17)G-OH; N-terminus and C-terminus assumed) yielded an IC50 of 2.1 nM.
Work on CC[C@H](C)[C@H](NC(=O)[C@@H]1CCCN1C(=O)[C@H](CC(N)=O)NC(=O)[C@H](CCC(N)=O)NC(=O)[C@H](CCC(=O)O)NC(=O)[C@H](C)N)C(=O)N[C@@H](Cc1ccc(O)cc1)C(=O)N[C@@H](Cc1c[nH]c2ccccc12)C(=O)N[C@@H](C)C(=O)N[C@@H](CCCNC(=N)N)C(=O)N[C@@H](Cc1ccc(O)cc1)C(=O)N[C@@H](C)C(=O)N[C@@H](CC(=O)O)C(=O)N[C@@H](Cc1c[nH]c2ccccc12)C(=O)N[C@@H](CC(C)C)C(=O)N[C@@H](Cc1ccccc1)C(=O)N[C@H](C(=O)N[C@H](C(=O)N1CCC[C@H]1C(=O)N[C@@H](CC(C)C)C(=O)N[C@@H](CC(C)C)C(=O)N[C@@H](CC(C)C)C(=O)N[C@@H](CC(C)C)C(=O)N[C@@H](CC(=O)O)C(=O)N[C@@H](CC(C)C)C(=O)N[C@@H](C)C(=O)N[C@@H](CC(C)C)C(=O)N[C@@H](CC(C)C)C(=O)N[C@H](C(=O)N[C@@H](CC(=O)O)C(=O)N[C@@H](C)C(=O)N[C@@H](CC(=O)O)C(=O)N[C@@H](CCC(=O)O)C(=O)N[C@@H](CSSCCOC(=O)N1CCC[C@@H](c2ccc(-n3cc4cccc(C(N)=O)c4n3)cc2)C1)C(=O)NCC(=O)O)C(C)C)[C@@H](C)O)[C@@H](C)O [Example 49] (H-AEQNPIYWARYADWLFTTPLLLLDLALLVDADEC(X21)G-OH; N-terminus and C-terminus assumed) yielded an IC50 of 26 nM.
Compound CC(C)C[C@H](NC(=O)[C@H](Cc1ccc(O)cc1)NC(=O)[C@H](C)NC(=O)[C@H](CCCNC(=N)N)NC(=O)[C@H](Cc1c[nH]c2ccccc12)NC(=O)[C@@H]1CCCN1C(=O)[C@H](CC(N)=O)NC(=O)[C@H](CCC(N)=O)NC(=O)[C@H](CC(=O)O)NC(=O)[C@H](CC(=O)O)NC(=O)[C@H](C)N)C(=O)N[C@@H](CC(=O)O)C(=O)N[C@@H](CC(C)C)C(=O)N[C@@H](CC(C)C)C(=O)N[C@@H](Cc1ccccc1)C(=O)N1CCC[C@H]1C(=O)N[C@H](C(=O)N[C@@H](CC(=O)O)C(=O)N[C@H](C(=O)N[C@@H](CC(C)C)C(=O)N[C@@H](CC(C)C)C(=O)N[C@@H](CC(C)C)C(=O)N[C@@H](CC(=O)O)C(=O)N[C@@H](CC(C)C)C(=O)N[C@@H](CC(C)C)C(=O)N[C@@H](Cc1c[nH]c2ccccc12)C(=O)N[C@@H](CC(=O)O)C(=O)N[C@@H](C)C(=O)N[C@@H](CC(=O)O)C(=O)N[C@@H](CCC(=O)O)C(=O)N[C@@H](CSS[C@H](C)COC(=O)N1CCC[C@]1(C)c1nc2c(C(N)=O)cccc2[nH]1)C(=O)NCC(=O)O)[C@@H](C)O)[C@@H](C)O [Example 51] has an IC50 of 0.9 nM.
Work on CC(C)C[C@H](NC(=O)[C@H](Cc1ccc(O)cc1)NC(=O)[C@H](C)NC(=O)[C@H](CCCNC(=N)N)NC(=O)[C@H](Cc1c[nH]c2ccccc12)NC(=O)[C@@H]1CCCN1C(=O)[C@H](CC(N)=O)NC(=O)[C@H](CCC(N)=O)NC(=O)[C@H](CC(=O)O)NC(=O)[C@H](CC(=O)O)NC(=O)[C@H](C)N)C(=O)N[C@@H](CC(=O)O)C(=O)N[C@@H](CC(C)C)C(=O)N[C@@H](CC(C)C)C(=O)N[C@@H](Cc1ccccc1)C(=O)N1CCC[C@H]1C(=O)N[C@H](C(=O)N[C@@H](CC(=O)O)C(=O)N[C@H](C(=O)N[C@@H](CC(C)C)C(=O)N[C@@H](CC(C)C)C(=O)N[C@@H](CC(C)C)C(=O)N[C@@H](CC(=O)O)C(=O)N[C@@H](CC(C)C)C(=O)N[C@@H](CC(C)C)C(=O)N[C@@H](Cc1c[nH]c2ccccc12)C(=O)N[C@@H](CC(=O)O)C(=O)N[C@@H](C)C(=O)N[C@@H](CC(=O)O)C(=O)N[C@@H](CCC(=O)O)C(=O)N[C@@H](CSS[C@@H](C)COC(=O)N1CCC[C@]1(C)c1nc2c(C(N)=O)cccc2[nH]1)C(=O)NCC(=O)O)[C@@H](C)O)[C@@H](C)O [Example 52] yielded an IC50 of 1.1 nM.
CC[C@H](C)[C@H](NC(=O)[C@@H]1CCCN1C(=O)[C@H](CC(N)=O)NC(=O)[C@H](CCC(N)=O)NC(=O)[C@H](CCC(=O)O)NC(=O)[C@H](C)N)C(=O)N[C@@H](Cc1ccc(O)cc1)C(=O)N[C@@H](Cc1c[nH]c2ccccc12)C(=O)N[C@@H](C)C(=O)N[C@@H](CCCNC(=N)N)C(=O)N[C@@H](Cc1ccc(O)cc1)C(=O)N[C@@H](C)C(=O)N[C@@H](CC(=O)O)C(=O)N[C@@H](Cc1c[nH]c2ccccc12)C(=O)N[C@@H](CC(C)C)C(=O)N[C@@H](Cc1ccccc1)C(=O)N[C@H](C(=O)N[C@H](C(=O)N1CCC[C@H]1C(=O)N[C@@H](CC(C)C)C(=O)N[C@@H](CC(C)C)C(=O)N[C@@H](CC(C)C)C(=O)N[C@@H](CC(C)C)C(=O)N[C@@H](CC(=O)O)C(=O)N[C@@H](CC(C)C)C(=O)N[C@@H](C)C(=O)N[C@@H](CC(C)C)C(=O)N[C@@H](CC(C)C)C(=O)N[C@H](C(=O)N[C@@H](CC(=O)O)C(=O)N[C@@H](C)C(=O)N[C@@H](CC(=O)O)C(=O)N[C@@H](CCC(=O)O)C(=O)N[C@@H](CSSCCOC(=O)N1CCC[C@]1(C)c1nc2c(C(N)=O)cccc2[nH]1)C(=O)NCC(=O)O)C(C)C)[C@@H](C)O)[C@@H](C)O [Example 53] (H-AEQNPIYWARYADWLFTTPLLLLDLALLVDADEC(X22)G-OH; N-terminus and C-terminus assumed) showed an IC50 of 1 nM.
For CC[C@H](C)[C@H](NC(=O)[C@@H]1CCCN1C(=O)[C@H](CC(N)=O)NC(=O)[C@H](CCC(N)=O)NC(=O)[C@H](CCC(=O)O)NC(=O)[C@H](C)N)C(=O)N[C@@H](Cc1ccc(O)cc1)C(=O)N[C@@H](Cc1c[nH]c2ccccc12)C(=O)N[C@@H](C)C(=O)N[C@@H](CCCNC(=N)N)C(=O)N[C@@H](Cc1ccc(O)cc1)C(=O)N[C@@H](C)C(=O)N[C@@H](CC(=O)O)C(=O)N[C@@H](Cc1c[nH]c2ccccc12)C(=O)N[C@@H](CC(C)C)C(=O)N[C@@H](Cc1ccccc1)C(=O)N[C@H](C(=O)N[C@H](C(=O)N1CCC[C@H]1C(=O)N[C@@H](CC(C)C)C(=O)N[C@@H](CC(C)C)C(=O)N[C@@H](CC(C)C)C(=O)N[C@@H](CC(C)C)C(=O)N[C@@H](CC(=O)O)C(=O)N[C@@H](CC(C)C)C(=O)N[C@@H](C)C(=O)N[C@@H](CC(C)C)C(=O)N[C@@H](CC(C)C)C(=O)N[C@H](C(=O)N[C@@H](CC(=O)O)C(=O)N[C@@H](C)C(=O)N[C@@H](CC(=O)O)C(=O)N[C@@H](CCC(=O)O)C(=O)N[C@@H](CSS[C@H](C)COC(=O)N1CCC[C@]1(C)c1nc2c(C(N)=O)cccc2[nH]1)C(=O)NCC(=O)O)C(C)C)[C@@H](C)O)[C@@H](C)O [Example 54] (H-AEQNPIYWARYADWLFTTPLLLLDLALLVDADEC(X16)G-OH; N-terminus and C-terminus assumed), the IC50 was 0.6 nM.
Compound CC[C@H](C)[C@H](NC(=O)[C@@H]1CCCN1C(=O)[C@H](CC(N)=O)NC(=O)[C@H](CCC(N)=O)NC(=O)[C@H](CCC(=O)O)NC(=O)[C@H](C)N)C(=O)N[C@@H](Cc1ccc(O)cc1)C(=O)N[C@@H](Cc1c[nH]c2ccccc12)C(=O)N[C@@H](C)C(=O)N[C@@H](CCCNC(=N)N)C(=O)N[C@@H](Cc1ccc(O)cc1)C(=O)N[C@@H](C)C(=O)N[C@@H](CC(=O)O)C(=O)N[C@@H](Cc1c[nH]c2ccccc12)C(=O)N[C@@H](CC(C)C)C(=O)N[C@@H](Cc1ccccc1)C(=O)N[C@H](C(=O)N[C@H](C(=O)N1CCC[C@H]1C(=O)N[C@@H](CC(C)C)C(=O)N[C@@H](CC(C)C)C(=O)N[C@@H](CC(C)C)C(=O)N[C@@H](CC(C)C)C(=O)N[C@@H](CC(=O)O)C(=O)N[C@@H](CC(C)C)C(=O)N[C@@H](C)C(=O)N[C@@H](CC(C)C)C(=O)N[C@@H](CC(C)C)C(=O)N[C@H](C(=O)N[C@@H](CC(=O)O)C(=O)N[C@@H](C)C(=O)N[C@@H](CC(=O)O)C(=O)N[C@@H](CCC(=O)O)C(=O)N[C@@H](CSS[C@@H](C)COC(=O)N1CCC[C@]1(C)c1nc2c(C(N)=O)cccc2[nH]1)C(=O)NCC(=O)O)C(C)C)[C@@H](C)O)[C@@H](C)O [Example 55] (H-AEQNPIYWARYADWLFTTPLLLLDLALLVDADEC(X14)G-OH; N-terminus and C-terminus assumed) has an IC50 of 0.7 nM.
CC(C)C[C@H](NC(=O)[C@H](Cc1ccc(O)cc1)NC(=O)[C@H](C)NC(=O)[C@H](CCCNC(=N)N)NC(=O)[C@H](Cc1c[nH]c2ccccc12)NC(=O)[C@@H]1CCCN1C(=O)[C@H](CC(N)=O)NC(=O)[C@H](CCC(N)=O)NC(=O)[C@H](CC(=O)O)NC(=O)[C@H](CC(=O)O)NC(=O)[C@H](C)N)C(=O)N[C@@H](CC(=O)O)C(=O)N[C@@H](CC(C)C)C(=O)N[C@@H](CC(C)C)C(=O)N[C@@H](Cc1ccccc1)C(=O)N1CCC[C@H]1C(=O)N[C@H](C(=O)N[C@@H](CC(=O)O)C(=O)N[C@H](C(=O)N[C@@H](CC(C)C)C(=O)N[C@@H](CC(C)C)C(=O)N[C@@H](CC(C)C)C(=O)N[C@@H](CC(=O)O)C(=O)N[C@@H](CC(C)C)C(=O)N[C@@H](CC(C)C)C(=O)N[C@@H](Cc1c[nH]c2ccccc12)C(=O)N[C@@H](CC(=O)O)C(=O)N[C@@H](C)C(=O)N[C@@H](CC(=O)O)C(=O)N[C@@H](CCC(=O)O)C(=O)N[C@@H](CSSc1ccc(COC(=O)N2CCC[C@]2(C)c2nc3c(C(N)=O)cccc3[nH]2)cc1)C(=O)NCC(=O)O)[C@@H](C)O)[C@@H](C)O [Example 56] showed an IC50 of 0.8 nM.
